Test results taken from PubChem BioAssay (NCI).
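All cell lines were grown in 96-well plates and treated with compound for 48 hours. Here, GI50 denotes the concentration required for 50% inhibition of growth. TGI denotes the concentration required for complete inhibition of growth.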

Legend:
Test in all cases: NCI-60 cell line screen, 48 h
EKVX NSCLC = system: EKVX NSCLC
HOP-62 NSCLC = system: HOP-62 NSCLC
IGROV1 ovarian = system: IGROV1 ovarian
NCI-H460 lung = system: NCI-H460 lung
OVCAR-5 ovarian = system: OVCAR-5 ovarian
PC-3 prostate = system: PC-3 prostate
SK-MEL-2 melanoma = system: SK-MEL-2 melanoma
TK-10 renal = system: TK-10 renal
MDA-MB-435 = system: MDA-MB-435
MDA-MB-231 breast = system: MDA-MB-231 breast

| Structure (SMILES) | TGI (EKVX NSCLC) [µM] | TGI (HOP-62 NSCLC) [µM] | TGI (IGROV1 ovarian) [µM] | TGI (NCI-H460 lung) [µM] | TGI (OVCAR-5 ovarian) [µM] | TGI (PC-3 prostate) [µM] | TGI (SK-MEL-2 melanoma) [µM] | TGI (TK-10 renal) [µM] | GI50 (EKVX NSCLC) [µM] | GI50 (HOP-62 NSCLC) [µM] | GI50 (IGROV1 ovarian) [µM] | GI50 (NCI-H460 lung) [µM] | GI50 (OVCAR-5 ovarian) [µM] | GI50 (SK-MEL-2 melanoma) [µM] | GI50 (TK-10 renal) [µM] | GI50 (MDA-MB-435) [µM] | TGI (MDA-MB-435) [µM] | GI50 (PC-3 prostate) [µM] | GI50 (MDA-MB-231 breast) [µM] | TGI (MDA-MB-231 breast) [µM] |
| --- | --- | --- | --- | --- | --- | --- | --- | --- | --- | --- | --- | --- | --- | --- | --- | --- | --- | --- | --- | --- |
| COC1=C2CC(C)CC(OC)C(O)C(C)/C=C(\C)C(OC(N)=O)C(OC)/C=C\C=C(/C)C(=O)NC(=C(/C=N/N3CCCCC3)C1=O)C2=O (stereo not given) | 14.7 | 44.5 | 27 | 57.1 | 34.5 | > 100 | 32.5 | 72.1 |  |  |  |  |  |  |  |  |  |  |  |  |
| CC1(C)OC(=O)C=C([O-])O1.CC1(C)OC(=O)C=C([O-])O1.CC[O-].CC[O-].[Ti+4] | > 100 | > 100 | > 100 | > 100 | > 100 |  | > 100 | > 100 | > 100 | > 100 | > 100 | > 100 | > 100 | > 100 | > 100 |  |  |  |  |  |
| COc1ccc2nc(NC(=O)C(=O)C(C#N)c3ccc(Cl)c(Cl)c3)sc2c1 (stereo not given) | > 100 | > 100 | > 100 | > 100 | > 100 |  | > 100 | > 100 |  |  |  |  |  |  |  |  |  |  |  |  |
| CN(C)C(=S)/N=c1\ss/c(=N\S(=O)(=O)c2ccccc2)n1N(C)C | > 100 | > 100 | > 100 | > 100 |  |  | > 100 | > 100 |  |  |  |  |  |  |  |  |  |  |  |  |
| O=C(O)CCSC(=O)Nc1ccc(N=Nc2ccccc2)cc1 | > 100 | > 100 | > 100 | > 100 | > 100 |  |  | > 100 |  |  |  |  |  |  |  |  |  |  |  |  |
| COc1ccc2c(c1OC)C(=O)c1cnccc1C2=O | > 100 | > 100 | > 100 | > 100 | > 100 |  | > 100 | > 100 |  |  |  |  |  |  |  |  |  |  |  |  |
| O=C(NS(=O)(=O)c1ccccc1)C(Cc1ccccc1)C(Cc1ccccc1)C(=O)NS(=O)(=O)c1ccccc1 (stereo not given) | > 100 | > 100 | > 100 | > 100 | > 100 |  | > 100 | > 100 |  |  |  |  |  |  |  |  |  |  |  |  |
| CCCNc1nc2ccccc2c2c1S(=O)(=O)c1ccc(Cl)cc1C2=O | > 50 | > 50 | > 50 | 4.47 |  | > 50 | > 50 | > 50 | 1.38 | 1.77 | 1.46 | 1.3 |  | 1.92 | 3.14 | 1.11 | > 50 | 0.225 |  |  |
| c1ccc(CNc2nc(Nc3ccccc3)nc3ccccc23)cc1 |  | 5.17 | 7.44 |  | 4.19 | 4.9 |  | 4.53 |  | 2.3 | 2.59 |  | 1.86 |  | 2.02 | 1.72 | 3.67 | 1.66 | 1.58 | 3.12 |
| CN1CC(=O)N(C)c2nc[nH]c2C1=O | > 100 |  | > 100 | > 100 | > 100 |  |  | > 100 |  |  |  |  |  |  |  |  |  |  |  |  |
| O=C(/C=C1/Nc2ccc([N+](=O)[O-])cc2NC1O)c1cccc([N+](=O)[O-])c1 (stereo not given) | > 100 | > 100 | > 100 | > 100 |  |  |  | 88.4 |  |  |  |  |  |  |  |  |  |  |  |  |
| CCC(Oc1ccc(OC)c2ccccc(=O)c12)C(=O)O (stereo not given) | > 100 | > 100 | > 100 | > 100 | > 100 |  | > 100 | > 100 |  |  |  |  |  |  |  |  |  |  |  |  |
| C=C1[C@@H]([C@@]2(C)C=CC(=O)C(C)(C)[C@@H]2CC(=O)OC)CC[C@@]2(C)C(c3ccoc3)OC(=O)[C@H]3O[C@]132 (stereo not given in full) | > 100 |  | > 100 | > 100 | > 100 | > 100 | > 100 | > 100 |  |  |  |  |  |  |  |  | > 100 |  |  | > 100 |
| Cc1cccc(Nc2cnc(N)nc2N)c1 | > 100 | > 100 | > 100 |  |  | > 100 | > 100 | > 100 |  |  |  |  |  |  |  |  | > 100 |  |  | > 100 |
| O=C1NC(=O)C2C1N(Cc1ccccc1)C(=O)N2Cc1ccccc1 (stereo not given) | > 100 | > 100 | > 100 | > 100 | > 100 |  |  | > 100 |  |  |  |  |  |  |  |  |  |  |  |  |
| O=C(NO)c1ccc(O)c(O)c1 | > 100 | > 100 | > 100 | > 100 | > 100 |  |  | > 100 |  |  |  |  |  |  |  |  |  |  |  |  |
| O=C1CC(c2ccc(Cl)cc2)Oc2ccccc21 (stereo not given) | 54.8 | 56 | 40.8 | 45.3 |  | 52.5 | 37.8 | 63.4 |  |  |  |  |  |  |  |  | > 100 |  |  | 53.9 |
| COC(=O)C1=C(c2ccc3c(c2)OCO3)OC(c2cc(OC)c(OC)c(OC)c2)C1 (stereo not given) | > 100 | > 100 | 9.53 | > 100 | > 100 |  |  | > 100 |  |  |  |  |  |  |  |  |  |  |  |  |
| COc1ccc2nc(NC(=O)c3cccnc3Nc3cc(OC)c(OC)c(OC)c3)sc2c1 | 55.6 | 22.3 | 28.5 | 24 | 29 | 23.2 |  | 14.1 | 11.5 | 6.33 | 13.2 | 7.42 | 14.5 |  | 4.31 | 1.85 | 10.4 | 6.67 | 5.62 | 21.7 |
| Cc1cccc2nc3cccc(C(=O)NCCN(C)C)c3nc12 | 2.03 | 1.39 | 15.5 | 16.5 | 5.97 |  | 2.96 | 5.84 |  |  |  |  |  |  |  |  |  |  |  |  |
| O=C(O)C1=C(C(=O)Nc2ccc(NC(=O)C3=C(C(=O)O)C4C=CC3C4)cc2)C2C=CC1C2 | > 100 | > 100 | > 100 | > 100 | > 100 |  | > 100 | > 100 |  |  |  |  |  |  |  |  |  |  |  |  |
| COC(=O)CCC(=O)NC1C2CC3CC(C2)CC1C3 (stereo not given) | > 100 | > 100 | > 100 | > 100 | > 100 |  | > 100 | > 100 |  |  |  |  |  |  |  |  |  |  |  |  |
| COc1ccc(OC)c(Nc2nc(-c3c(C)nc4sccn34)cs2)c1 |  | 63.4 | > 100 | > 100 | > 100 | > 100 | > 100 | > 100 |  | 8.46 | 23.2 | > 100 | > 100 | > 100 | 87.5 | > 100 | > 100 | 18.1 | > 100 | > 100 |
| CC1=CC(=O)N(c2c(C)cccc2Cl)C(C)N1 (stereo not given) | > 100 | > 100 | > 100 | > 100 | > 100 |  | > 100 | > 100 |  |  |  |  |  |  |  |  |  |  |  |  |
